According to paper PMC7093242 (Cell chemical biology, 2020):

Target: Yck2-HA (HA-tagged Yck2) (Candida albicans, UniProt A0A1D8PKB4)
Experiment: ADP-Glo kinase assay on immunoprecipitated Yck2-HA beads
Format: biochemical
Settings: 25 μM ATP, 0.2 mg/mL casein kinase I peptide substrate, pH 7.5, 30°C; little effect

CN[C@@H]1C[C@H]2O[C@@](C)([C@@H]1OC)n1c3ccccc3c3c4c(c5c6ccccc6n2c5c31)C(=O)NC4 [STS, staurosporine]
concentration-dependent inhibition: the promiscuous PKI, staurosporine had little effect on Yck2 activity
